24 molecules from patent US20240190891A1, “PYRIDO OXAZINE AMINO DERIVATIVES AS ALK5 INHIBITORS” (CHIESI FARMACEUTICI S.P.A., priority 2020, published 2024) can be followed below.

In the assay the target is T1, human ALK5 (Homo sapiens, UniProt P36897).
T1 construct: human ALK5 (recombinant TGF β1 N-term GST-tagged, 80-end); GST (N); purchased
T1 sequence (P36897 80-503 limits assumed): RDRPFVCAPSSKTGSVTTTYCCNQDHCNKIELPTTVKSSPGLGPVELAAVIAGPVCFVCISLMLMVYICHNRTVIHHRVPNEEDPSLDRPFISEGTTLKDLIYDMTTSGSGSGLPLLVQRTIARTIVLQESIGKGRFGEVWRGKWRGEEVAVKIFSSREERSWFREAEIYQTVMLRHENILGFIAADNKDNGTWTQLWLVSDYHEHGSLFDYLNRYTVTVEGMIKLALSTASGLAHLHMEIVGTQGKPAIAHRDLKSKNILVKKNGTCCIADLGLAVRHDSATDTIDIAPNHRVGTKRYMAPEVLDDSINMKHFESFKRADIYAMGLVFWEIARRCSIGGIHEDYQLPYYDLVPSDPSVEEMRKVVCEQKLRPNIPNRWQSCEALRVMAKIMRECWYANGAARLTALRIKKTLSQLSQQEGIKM
In words: ADP-GLO Kinases assay, inhibitory activity on ALK5. It is filed as biochemical. The note with it: Table 10; purified recombinant human ALK5 2.6 nM, ADP-Glo, 25° C., 150 min incubation. The method, then: The enzymatic activity of compounds of the present invention was monitored measuring the formation of ADP using the ADP-GLO Kinases assay. Following the incubation of the purified enzyme, a substrate and ATP, the produced ADP was converted into ATP, which in turn was converted into light by Ultra-Glo Luciferase. The luminescent signal positively correlated with ADP amount and kinase activity. Briefly, the kinase reaction was performed by incubating 2.6 nM of the purified, commercially available human ALK5 (recombinant TGF β1 N-term GST-tagged, 80-end), a final concentration of TGFβ1 peptide 94.5 μM (Promega, T36-58) and ultra-pure ATP (Promega V915B). The ATP concentration was set at the Km value (concentration of substrate which permits the enzyme to achieve half maximal velocity (Vmax)) of ALK5 (5 μM). All reactions/incubations were performed at 25° C. Compound and ALK5 kinase were mixed and incubated for 15 mins. Reactions were initiated by addition of ATP at a final concentration in the assay of 0.83 μM. After an incubation of 150 min, the reaction was stopped, and ADP production detected with ADP-Glo kit according to manufacturer's indications. The assay was performed in 384-well format and was validated using a selection of reference compounds that was tested in 11 point concentration-response curve.
Compounds of the examples C1, C2 and C3 were tested in the same in vitro assay described above.
On the technique in general: In ADP-Glo the light output rises with the ADP produced.
As for `O=C(O)c1cnccc1Nc1cc(-c2cc(Cl)ccc2F)nc2c1OCCN2` [Example 16, lithium 4-{[6-(5-chloro-2-fluorophenyl)-2H,3H,4H-pyrido[3,2-b][1,4]oxazin-8-yl]amino}pyridine-3-carboxylate], the IC50 was under 1 nM.
As for `COC(=O)c1cnccc1Nc1cc(-c2cc(Cl)ccc2F)nc2c1OCCN2` [Example 17, methyl 4-{[6-(5-chloro-2-fluorophenyl)-2H,3H,4H-pyrido[3,2-b][1,4]oxazin-8-yl]amino}pyridine-3-carboxylate], the IC50 was under 1 nM.
With `Cc1cccc(-c2cc(Nc3ccncc3)c3c(n2)NCCO3)c1` [Example 18, N-[6-(3-methylphenyl)-2H,3H,4H-pyrido[3,2-b][1,4]oxazin-8-yl]pyridin-4-amine] the figure was 1 to 5 nM.
On to `Fc1ccc(-c2cc(Nc3ccncc3)c3c(n2)NCCO3)cc1Cl` [Example 19, N-[6-(3-chloro-4-fluorophenyl)-2H,3H,4H-pyrido[3,2-b][1,4]oxazin-8-yl]pyridin-4-amine], for which the concentration for half-maximal inhibition (IC50) lay within 5 to 10 nM.
With `O=C(CCN1CCOCC1)Nc1cc(Nc2cc(-c3cc(Cl)ccc3F)nc3c2OCCN3)ccn1` [Example 20, N-(4-{[6-(5-chloro-2-fluorophenyl)-2H,3H,4H-pyrido[3,2-b][1,4]oxazin-8-yl]amino}pyridin-2-yl)-3-(morpholin-4-yl)propanamide] the figure was under 1 nM.
The value for `CNCCNC(=O)c1cnccc1Nc1cc(-c2cc(Cl)ccc2F)nc2c1OCCN2` [Example 21, 4-{[6-(5-chloro-2-fluorophenyl)-2H,3H,4H-pyrido[3,2-b][1,4]oxazin-8-yl]amino}-N-[2-(methylamino)ethyl]pyridine-3-carboxamide] was under 1 nM.
On to `CC(C)NC(=O)c1cnccc1Nc1cc(-c2cc(Cl)ccc2F)nc2c1OCCN2` [Example 22, 4-{[6-(5-chloro-2-fluorophenyl)-2H,3H,4H-pyrido[3,2-b][1,4]oxazin-8-yl]amino}-N-(propan-2-yl)pyridine-3-carboxamide], for which the IC50 is 1 to 5 nM.
With `O=C(NC1CC1)c1cnccc1Nc1cc(-c2cc(Cl)ccc2F)nc2c1OCCN2` [Example 23, 4-{[6-(5-chloro-2-fluorophenyl)-2H,3H,4H-pyrido[3,2-b][1,4]oxazin-8-yl]amino}-N-cyclopropylpyridine-3-carboxamide], the IC50 was under 1 nM.
Regarding `O=C(NC1CCNCC1)c1cnccc1Nc1cc(-c2cc(Cl)ccc2F)nc2c1OCCN2` [Example 24, 4-{[6-(5-chloro-2-fluorophenyl)-2H,3H,4H-pyrido[3,2-b][1,4]oxazin-8-yl]amino}-N-(piperidin-4-yl)pyridine-3-carboxamide], the IC50 is under 1 nM.
With `Fc1ccc(Cl)cc1-c1cc(Nc2ccnc3[nH]ncc23)c2c(n1)NCCO2` [Example 25, 6-(5-chloro-2-fluorophenyl)-N-{1H-pyrazolo[3,4-b]pyridin-4-yl}-2H,3H,4H-pyrido[3,2-b][1,4]oxazin-8-amine] the figure was under 1 nM; with `Fc1ccc(-c2cc(Nc3ccncc3)c3c(n2)NCCO3)nc1` [Example 26, N-[6-(5-fluoropyridin-2-yl)-2H,3H,4H-pyrido[3,2-b][1,4]oxazin-8-yl]pyridin-4-amine], 5 to 10 nM.
The value for `CN(C)CCOC(=O)c1cnccc1Nc1cc(-c2cc(Cl)ccc2F)nc2c1OCCN2` [Example 27, 2-(dimethylamino)ethyl 4-{[6-(5-chloro-2-fluorophenyl)-2H,3H,4H-pyrido[3,2-b][1,4]oxazin-8-yl]amino}pyridine-3-carboxylate] was 1 to 5 nM; that for `CN1CCN(CCNC(=O)c2cnccc2Nc2cc(-c3cc(Cl)ccc3F)nc3c2OCCN3)CC1` [Example 28, 4-{[6-(5-chloro-2-fluorophenyl)-2H,3H,4H-pyrido[3,2-b][1,4]oxazin-8-yl]amino}-N-[2-(4-methylpiperazin-1-yl)ethyl]pyridine-3-carboxamide] was 1 to 5 nM.
Turning to `CN1CCN(CCOC(=O)c2cnccc2Nc2cc(-c3cc(Cl)ccc3F)nc3c2OCCN3)CC1` [Example 29, 2-(4-methylpiperazin-1-yl)ethyl 4-{[6-(5-chloro-2-fluorophenyl)-2H,3H,4H-pyrido[3,2-b][1,4]oxazin-8-yl]amino}pyridine-3-carboxylate], the IC50 was under 1 nM.
The value for `COC(=O)c1cnccc1Nc1cc(-c2cccc(C)n2)nc2c1OCCN2` [Example 30, methyl 4-{[6-(6-methylpyridin-2-yl)-2H,3H,4H-pyrido[3,2-b][1,4]oxazin-8-yl]amino}pyridine-3-carboxylate] was under 1 nM.
With `Fc1ccc(Cl)cc1-c1cc(Nc2ccnc3[nH]ccc23)c2c(n1)NCCO2` [Example 31, 6-(5-chloro-2-fluorophenyl)-N-{1H-pyrrolo[2,3-b]pyridin-4-yl}-2H,3H,4H-pyrido[3,2-b][1,4]oxazin-8-amine] the figure was under 1 nM.
As to `CN1CCC(NC(=O)c2cnccc2Nc2cc(-c3cc(Cl)ccc3F)nc3c2OCCN3)CC1` [Example 32, 4-{[6-(5-chloro-2-fluorophenyl)-2H,3H,4H-pyrido[3,2-b][1,4]oxazin-8-yl]amino}-N-(1-methylpiperidin-4-yl)pyridine-3-carboxamide], the IC50 is under 1 nM.
The value for `CN1CCN(CCC(=O)Nc2cc(Nc3cc(-c4cc(Cl)ccc4F)nc4c3OCCN4)ccn2)CC1` [Example 33, N-(4-{[6-(5-chloro-2-fluorophenyl)-2H,3H,4H-pyrido[3,2-b][1,4]oxazin-8-yl]amino}pyridin-2-yl)-3-(4-methylpiperazin-1-yl)propanamide] was under 1 nM; that for `CN(C)CCC(=O)Nc1cc(Nc2cc(-c3cc(Cl)ccc3F)nc3c2OCCN3)ccn1` [Example 34, N-(4-{[6-(5-chloro-2-fluorophenyl)-2H,3H,4H-pyrido[3,2-b][1,4]oxazin-8-yl]amino}pyridin-2-yl)-3-(dimethylamino)propanamide] was under 1 nM.
With `Fc1ccc(Cl)cc1-c1cc(Nc2ccnc3[nH]cnc23)c2c(n1)NCCO2` [Example 35, 6-(5-chloro-2-fluorophenyl)-N-{3H-imidazo[4,5-b]pyridin-7-yl}-2H,3H,4H-pyrido[3,2-b][1,4]oxazin-8-amine] the figure was under 1 nM; with `COC(=O)c1c[nH]c2nccc(Nc3cc(-c4cc(Cl)ccc4F)nc4c3OCCN4)c12` [Example 36, methyl 4-{[6-(5-chloro-2-fluorophenyl)-2H,3H,4H-pyrido[3,2-b][1,4]oxazin-8-yl]amino}-1H-pyrrolo[2,3-b]pyridine-3-carboxylate], under 1 nM.
The value for `O=C(NCCN(CCO)CCO)c1cnccc1Nc1cc(-c2cc(Cl)ccc2F)nc2c1OCCN2` [Example 37, N-{2-[bis(2-hydroxyethyl)amino]ethyl}-4-{[6-(5-chloro-2-fluorophenyl)-2H,3H,4H-pyrido[3,2-b][1,4]oxazin-8-yl]amino}pyridine-3-carboxamide] was under 1 nM; that for `COC(=O)c1cc2c(Nc3cc(-c4cc(Cl)ccc4F)nc4c3OCCN4)ccnc2[nH]1` [Example 38, methyl 4-{[6-(5-chloro-2-fluorophenyl)-2H,3H,4H-pyrido[3,2-b][1,4]oxazin-8-yl]amino}-1H-pyrrolo[2,3-b]pyridine-2-carboxylate] was under 1 nM.
For `CN(C)CCC(=O)Nc1cnccc1Nc1cc(-c2cc(Cl)ccc2F)nc2c1OCCN2` [Example 39, N-(4-{[6-(5-chloro-2-fluorophenyl)-2H,3H,4H-pyrido[3,2-b][1,4]oxazin-8-yl]amino}pyridin-3-yl)-3-(dimethylamino)propanamide], the IC50 is 5 to 10 nM.

A word on the IC50: it is the concentration at which inhibition is half-maximal.
